Results taken from patent US20180015170A1, “CYCLODEXTRIN-BASED POLYMERS FOR THERAPEUTIC DELIVERY” (CERULEAN PHARMA INC., priority 2012, published 2018).
Several values for one entry are separate records, joined by “and”; a condition that tells them apart may be missing. Identical values can stand only once.

Legend:
B16.F10 cells = test: Efficacy of CDP-docetaxel nanoparticles in a murine melanoma model; assay type: in vivo, male C57BL/6 mice
Experimental: (§1) Animals were monitored for any morbidity and adverse effect three times a week.
Tumor volume was calculated with a (width×width×length)/2 mm^3 formula.

[1] = Tolerability (body weight) in the B16.F10 murine melanoma model
Experimental: as §1
Health monitoring was conducted three times a week to evaluate lethargy, tremors, hypothermia, ataxia, hind limb paralysis etc. The criteria at which a mouse was removed from the study were >20% body weight loss or severe morbidity or hind limb paralysis.

[2] = 15 mg/kg IV, weekly schedule for 3 injections
[3] = 30 mg/kg IV, weekly schedule for 3 injections (sections 1.4, 2.3, 4.2, 5.2)

Substance	day on which the mean tumor volume endpoint (≧3000 mm^3) was reached (B16.F10 cells; [2]) [days]	Tumor growth delay (TGD) (B16.F10 cells; [2]) [days]	increase in TGD (B16.F10 cells; [2]) [%]	Tumor growth delay (TGD) (B16.F10 cells; [3]) [days]	day on which the mean tumor volume endpoint (≧3000 mm^3) was reached (B16.F10 cells; [3]) [days]	increase in TGD (B16.F10 cells; [3]) [%]	Maximum body weight loss (%) [1, 2]	Maximum body weight loss (%) [1, 3]	day on which the mean tumor volume endpoint (≧3000 mm^3) was reached (B16.F10 cells; mouse, in vivo)
CDP-2′-aminoethoxyethoxy-Docetaxel [CDP-aminoethoxyethoxy-DTX formulation]	33	–	–	–	–	–	–	–	–
CDP-dithiolethyloxy-carbonate-docetaxel [CDP-ethane-S-S-ethane-DTX formulation]	21	2	11	5	24	26	did not cause any body weight loss	did not cause any significant body weight loss	–
CDP-2′-alanine glycolate-docetaxel [CDP-Ala Gly-DTX formulation]	–	–	–	–	–	–	–	–	43 days and 33 days and 29 days
